Source: US9452117B2 (priority 2011, dated 2016)

Key:
[1] = tested on: Human skeletal muscle cells; type: cell-based
human skin cells = type: cell-based
Large^myd mice = test: Body weight change and muscle weight of Large^myd mice; type: in vivo; conditions: 40 mg/kg body weight daily, not on weekends, 3 months
Procedure: The body weight change and muscle weight of treated Large^myd mice was also evaluated. Large^myd mice (at age of 10 weeks, male:female=1:1) received Compound D2 (40 mg/kg body weight) daily. No treatment on weekends. […] The muscle weight gain for the TA and EDL muscles are summarized below.

CCCC(CCC)CO[N+](=O)[O-] [Compound D2, 2-propylpentyl nitrate]
calcification (calcium-45 accumulation) [1]: reduce calcification
calcification (calcium-45 accumulation) (human skin cells): significant reduction
EDL muscle mass (Large^myd mice; control 0.015 ± 0.001): 0.017 ± 0.001 gram
TA muscle mass (Large^myd mice; control 0.048 ± 0.004): 0.054 ± 0.004 gram
Body weight increase (Large^myd mice; control 2%): 13%;
